Experimental data as given in PMC12254355 (Nature Communications, 2025).
Ends that are not written are not given here.

Experiments:
[1] = tested on: E. faecium ATCC 700221 - VRE; conditions: ATCC 700221, 24 h
[2] = tested on: HEK293T cells; conditions: for CC50 vs HEK293T cells (source data of Figure 4a): 24 h
[3] = tested on: E. faecalis ATCC 700802 - VRE; conditions: ATCC 700802, 24 h
[4] = tested on: human red blood cells; conditions: pH 7.4
[5] = tested on: S. aureus ATCC BAA-1556 - MRSA; conditions: ATCC BAA-1556, 24 h
[6] = tested on: K. pneumoniae ATCC 13883; conditions: ATCC 13883, 24 h
[7] = tested on: E. coli AIC221; conditions: AIC221, 24 h
[8] = tested on: A. baumannii ATCC 19606; conditions: ATCC 19606, 24 h
[9] = tested on: S. aureus ATCC 12600; conditions: ATCC 12600, 24 h
[10] = tested on: P. aeruginosa PAO1; conditions: PAO1, 24 h
[11] = tested on: P. aeruginosa PA14; conditions: PA14, 24 h
[12] = tested on: E. coli ATCC 11775; conditions: ATCC 11775, 24 h
[13] = tested on: E. coli AIC222 (polymyxin resistant; colistin-resistant strain); conditions: 24 h
[14] = tested on: 11 clinically relevant pathogens; type: cell-based

Row | Sequence | Minimal Inhibitory Concentration, E. faecium ATCC 700221 - VRE (+) [1] | SIcytotoxicity [2] | Minimal Inhibitory Concentration, E. faecalis ATCC 700802 - VRE (+) [3] | HC50 [4] | Minimal Inhibitory Concentration, S. aureus ATCC BAA-1556 - MRSA (+) [5] | Minimal Inhibitory Concentration, K. pneumoniae ATCC 13883 (-) [6] | Minimal Inhibitory Concentration, E. coli AIC221 (-) [7] | Minimal Inhibitory Concentration, A. baumannii ATCC 19606 (-) [8] | CC50 vs HEK293T cells [2] | CC50 vs HEK293T cells (source data of Figure 4a) [2] | Minimal Inhibitory Concentration, S. aureus ATCC 12600 (+) [9] | Minimal Inhibitory Concentration, P. aeruginosa PAO1 (-) [10] | Minimal Inhibitory Concentration, P. aeruginosa PA14 (-) [11] | Minimal Inhibitory Concentration, E. coli ATCC 11775 (-) [12] | Minimal Inhibitory Concentration, E. coli AIC222 (-) [13] | Antimicrobial activity against the pathogen panel (in words) [14]
1 | LLHFSIWRSTVLRK [ISOB-4] | 16 µmol/L | 9.7 | 64 µmol/L | 24308.0 | – | – | – | – | – | – | – | – | – | – | – | –
2 | RGLAKLLKIGLKSFARVLKK [Arachnoserver-12] | 8 µmol/L | 2.1 | – | 40.1 | 64 µmol/L | 32 µmol/L | 4 µmol/L | 32 µmol/L | 8 µM | 8.419 µM | 64 µmol/L | 16 µmol/L | 8 µmol/L | 16 µmol/L | – | –
3 | SKKQIRLYLLKYYGKKLFKKRPK [Arachnoserver-19] | 8 µmol/L | 2.1 | – | 163.3 | – | – | 32 µmol/L | – | – | 16.68 µM | – | 16 µmol/L | 16 µmol/L | – | 32 µmol/L | –
4 | WLGSALKIGAKLL [UniprotKB-2] | – | – | – | 5.529e+042 | – | – | – | – | 8 µM | 8.278 µM | – | – | – | – | – | no activity
5 | KFLARLVFRKFILL [UniprotKB-13] | 2 µmol/L | 13.4 | 32 µmol/L | 455.9 | – | 64 µmol/L | 8 µmol/L | – | 27 µM | – | – | – | – | – | 32 µmol/L | –
